# Assays:
# [1] = test system: MDCK cells; assay: PKD vesicle experiment (forskolin-induced vesicles of MDCK cells in matrigel); assay type: cell-based; conditions: 10 μM Forsklin, day 12
# Method: The vesicles similar to those in PKD disease are formed by using MDCK cells under the action of AC enzyme agonist forskolin to simulate the occurrence and development of the disease, and the test compounds are respectively administered to observe their effects on the vesicles.
# The MDCK cells were cultured at 37° C./5% CO2, with DMEM F12 medium (purchased from Combio technology company) supplemented with 10% fetal bovine serum and 1% double antibody.
# During the re-cooling of matrigel, MDCK cells were digested and counted. […] The cells were incubated for 12 days, in which the medium was changed every 12 h, and photos were taken at days 4, 6, 8, 10, and 12. The photo area was selected to track the specific vesicles.
# The diameters of vesicles were compared on day 12 to assess the effect of test compounds.
# [2] = test system: PKD1 knockout mice; assay: PKD mouse experiment; assay type: in vivo; conditions: 2 mg/kg subcutaneous injection, seven days of administration
# Description: Such compounds have antagonistic effects on arginine vasopressin receptors, and can inhibit the effect of cAMP in vivo, thereby inhibiting the occurrence and development of PKD. In this experiment, PKD1 knockout mice were used to evaluate the efficacy of these compounds.
# 1. Numbering the mice to perform gene identification: After 3 days of birth, the mice were marked by the method of cutting toes. The cut toes were placed in EP tubes marked in advance to boil, and then the genes were identified by agarose electrophoresis after PCR.
# 2. Preparation of corresponding medicaments: The corresponding weights of drugs were precisely weighed with an electronic balance and placed in new EP tubes. Then the corresponding amounts of HPMC were added with a pipette to prepare the medicaments of the desired concentration.
# 3. Administration to mice: The administrations of medicaments to mice was started on Day 6 or 5 after birth (the underweight mice were administered with medicaments on Day 6, and the rest of mice were administered with medicaments on Day 5), and the administration time was fixed (for example, 9:00 am). […]
# 5. Data processing: The total weight of the left and right kidneys, and the proportion of the kidneys, etc. were calculated.
# [3] = biological target: human V2R (Homo sapiens, UniProt P30518); conditions: for residence time: read-out: RT (residence time of the compound to be tested on cells); for koff: read-out: koff (dissociation constant between the compound to be tested and cells); for kon: read-out: kon (association constant between the compound to be tested and cells)
# Chain of human V2R (P30518 whole entry): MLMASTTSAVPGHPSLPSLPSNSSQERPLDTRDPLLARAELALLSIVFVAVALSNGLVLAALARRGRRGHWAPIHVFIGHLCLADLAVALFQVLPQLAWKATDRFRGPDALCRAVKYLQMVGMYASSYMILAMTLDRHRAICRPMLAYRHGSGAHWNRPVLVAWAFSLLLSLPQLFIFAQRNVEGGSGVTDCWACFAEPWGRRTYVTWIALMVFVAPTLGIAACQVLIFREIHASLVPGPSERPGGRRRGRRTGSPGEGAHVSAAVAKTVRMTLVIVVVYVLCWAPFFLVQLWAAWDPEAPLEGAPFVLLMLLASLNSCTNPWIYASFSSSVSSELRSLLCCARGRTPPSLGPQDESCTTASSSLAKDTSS
# [4] = test system: ADPKD patients; conditions: cited from earlier work
residence time [3],koff [3],kon [3],affinity to V2R compared with Tolvaptan ([3]; text summary of Table 7),Ki [3],SMILES,The diameter of vesicles [1],Proportion of the kidneys % [2],residence time with receptor compared with Tolvaptan ([3]; text summary of Table 7),"serum hepatic transaminases ([4]; clinical trials, some patients)","excretion rate of sodium and urea ([4]; prospective study, 30 ADPKD patients, after administration)"
12 ± 2 min,0.00135 s⁻¹,160000 M⁻¹ s⁻¹,,,"Cc1ccccc1C(=O)Nc1ccc(C(=O)N2CCCC(NCCCCN3CCOCC3)c3cc(Cl)ccc32)c(C)c1 (stereo not drawn) [Compound 2, N-(4-(7-chloro-5-((4-morpholinobutyl)amino)-2,3,4,5-tetrahydro-1H-benzo[b]azepine-1-carbonyl)-3-methylphenyl)-2-methylbenzamide]",,,,,
21 ± 2 min,0.000783 s⁻¹,333000 M⁻¹ s⁻¹,comparable to the affinity of Tolvaptan,,"Cc1ccccc1C(=O)Nc1ccc(C(=O)N2CCCC(NCCN3CCOCC3)c3cc(Cl)ccc32)c(C)c1 (stereo not drawn) [Compound 4, N-(4-(7-chloro-5-((2-morpholinoethyl)amino)-2,3,4,5-tetrahydro-1H-benzo[b]azepine-1-carbonyl)-3-methylphenyl)-2-methylbenzamide]",,,longer residence time with receptor than Tolvaptan,,
13 ± 1 min,0.00125 s⁻¹,165000 M⁻¹ s⁻¹,comparable to the affinity of Tolvaptan,,"Cc1ccccc1C(=O)Nc1ccc(C(=O)N2CCCC(NCCCc3ccncc3)c3cc(Cl)ccc32)c(C)c1 (stereo not drawn) [Compound 5, N-(4-(7-chloro-5-((3-(pyridin-4-yl)propyl)amino)-2,3,4,5-tetrahydro-1H-benzo[b]azepine-1-carbonyl)-3-methylphenyl)-2-methylbenzamide]",,,,,
7 ± 1 min,0.00233 s⁻¹,350000 M⁻¹ s⁻¹,,,"Cc1ccccc1C(=O)Nc1ccc(C(=O)N2CCCC(NCCCN3CCN(C)CC3)c3cc(Cl)ccc32)c(C)c1 (stereo not drawn) [Compound 17, N-(4-(7-chloro-5-((3-(4-methylpiperazin-1-yl)propyl)amino)-2,3,4,5-tetrahydro-1H-benzo[b]azepine-1-carbonyl)-3-methylphenyl)-2-methylbenzamide]",,,,,
17 ± 2 min,0.001 s⁻¹,18300 M⁻¹ s⁻¹,,0.077 ± 0.026 µM,"Cc1ccccc1C(=O)Nc1ccc(C(=O)N2CCCC(NCCOc3ccccc3)c3cc(Cl)ccc32)c(C)c1 (stereo not drawn) [Compound 21, N-(4-(7-chloro-5-((2-phenoxyethyl)amino)-2,3,4,5-tetrahydro-1H-benzo[b]azepine-1-carbonyl)-3-methylphenyl)-2-methylbenzamide]",,,,,
7 ± 1 min,0.0025 s⁻¹,183000 M⁻¹ s⁻¹,,0.031 ± 0.007 µM,"Cc1ccccc1C(=O)Nc1ccc(C(=O)N2CCCC(NCCCCCOc3ccccc3)c3cc(Cl)ccc32)c(C)c1 (stereo not drawn) [Compound 24, N-(4-(7-chloro-5-((5-phenoxypentyl)amino)-2,3,4,5-tetrahydro-1H-benzo[b]azepine-1-carbonyl)-3-methylphenyl)-2-methylbenzamide]",,,,,

# Continued, compound first:
SMILES,residence time [3],koff [3],kon [3],affinity to V2R compared with Tolvaptan ([3]; text summary of Table 7),Ki [3],The diameter of vesicles [1],Proportion of the kidneys % [2],residence time with receptor compared with Tolvaptan ([3]; text summary of Table 7),"serum hepatic transaminases ([4]; clinical trials, some patients)","excretion rate of sodium and urea ([4]; prospective study, 30 ADPKD patients, after administration)"
"Cc1ccccc1C(=O)Nc1ccc(C(=O)N2CCCC(NCCCN3CCOCC3)c3cc(Cl)ccc32)c(C)c1 (stereo not drawn) [Compound 1, N-(4-(7-chloro-5-((3-morpholinopropyl)amino)-2,3,4,5-tetrahydro-1H-benzo[b]azepine-1-carbonyl)-3-methylphenyl)-2-methylbenzamide]",,,,,,172.0 μm,11.85%,,,
"Cc1ccccc1C(=O)Nc1ccc(C(=O)N2CCCC(NCCCCCN3CCOCC3)c3cc(Cl)ccc32)c(C)c1 (stereo not drawn) [Compound 3, N-(4-(7-chloro-5-((5-morpholinopentyl)amino)-2,3,4,5-tetrahydro-1H-benzo[b]azepine-1-carbonyl)-3-methylphenyl)-2-methylbenzamide]",14 ± 2 min,0.00118 s⁻¹,105000 M⁻¹ s⁻¹,,,,,,,
"Cc1ccccc1C(=O)Nc1ccc(C(=O)N2CCCC(NCCC(=O)N3CCOCC3)c3cc(Cl)ccc32)c(C)c1 (stereo not drawn) [Compound 13, N-(4-(7-chloro-5-((3-morpholino-3-oxopropyl)amino)-2,3,4,5-tetrahydro-1H-benzo[b]azepine-1-carbonyl)-3-methylphenyl)-2-methylbenzamide]",9 ± 1 min,0.00183 s⁻¹,683000 M⁻¹ s⁻¹,comparable to the affinity of Tolvaptan,,,,,,
"Cc1ccccc1C(=O)Nc1ccc(C(=O)N2CCCC(O)c3cc(Cl)ccc32)c(C)c1 (stereo not drawn) [Tolvaptan, tolvaptan, reference compound]",,,,,,183.7 μm,15.80%,,increased to more than three times the normal level,increased

# From US20240076279A1, “NOVEL BENZOAZEPINE COMPOUND, AND COMPOSITION AND USE THEREOF” (XUZHOU MEDICAL UNIVERSITY, priority 2021, published 2024)
